The record followed here is US11446287B2, “Compounds and methods for EP300 or CBP modulation and indications therefor” (Opna Immuno-Oncology SA, priority 2019, dated 2022).

A word on the IC50: it is the midpoint of a concentration-inhibition curve.

The target of this assay is T1, Recombinant human BRD4 containing dual bromodomains (BRD4-BD12 (1-477)) (Homo sapiens, UniProt O60885).
T1 construct: Recombinant human BRD4 containing dual bromodomains (BRD4-BD12 (1-477)); made in house; host or cells: E. coli BL21-CodonPlus (DE3), modified pET vector
Description: BRD4 Alphascreen binding assay. Summed up: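 His-tagged human BRD4 tandem bromodomains (1-477, E. coli) incubated 1 h at room temperature with biotinylated tetra-acetylated H4 (1-21) peptide and compound in HEPES pH 7.5 buffer with 2 mM DTT. AlphaScreen signal read 30 min after adding beads (7.5 μg/ml); IC50 from four-parameter fit after normalization to controls.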
(Alpha assays give light when donor and acceptor beads are brought close together.)
For the molecule `CCOc1cc(C(=O)O)c(F)cc1-c1cn(C2CCN(C(=O)OC(C)(C)C)CC2)c2ncc(-c3c(C)noc3C)cc12` [P-0442, 4-(1-(1-(tert-butoxycarbonyl)piperidin-4-yl)-5-(3,5-dimethylisoxazol-4-yl)-1H-pyrrolo[2,3-b]pyridin-3-yl)-5-ethoxy-2-fluorobenzoic acid], the half-maximal inhibitory concentration (IC50) is 8 to 1000 µM.

For the molecule `COc1ccc(CC(=O)O)cc1-c1cn(-c2ccc(F)cc2F)c2ncc(-c3c(C)noc3C)cc12` [P-0443, 2-(3-(1-(2,4-difluorophenyl)-5-(3,5-dimethylisoxazol-4-yl)-1H-pyrrolo[2,3-b]pyridin-3-yl)-4-methoxyphenyl)acetic acid], the IC50 was in the range of 1 to 8 µM.

`Cc1noc(C)c1-c1cnc2c(c1)c(-c1cc(F)c(C(=O)O)cc1OC(F)(F)F)cn2-c1ccc(C2CC2)nc1` [P-0444, 4-(1-(6-cyclopropylpyridin-3-yl)-5-(3,5-dimethylisoxazol-4-yl)-1H-pyrrolo[2,3-b]pyridin-3-yl)-2-fluoro-5-(trifluoromethoxy)benzoic acid]: the IC50 is 1 to 8 µM.

As for `CCOc1cc(C(=O)O)c(F)cc1-c1cn(C2CCN(C(=O)C(C)(C)C)CC2)c2ncc(-c3c(C)noc3C)cc12` [P-0445, 4-(5-(3,5-dimethylisoxazol-4-yl)-1-(1-pivaloylpiperidin-4-yl)-1H-pyrrolo[2,3-b]pyridin-3-yl)-5-ethoxy-2-fluorobenzoic acid], the 50% inhibitory concentration (IC50) lay within 8 to 1000 µM.

For `CCOc1cc(C(=O)O)c(F)cc1-c1cn(C2CCN(CCC#N)CC2)c2ncc(-c3c(C)noc3C)cc12` [P-0446, 4-(1-(1-(2-cyanoethyl)piperidin-4-yl)-5-(3,5-dimethylisoxazol-4-yl)-1H-pyrrolo[2,3-b]pyridin-3-yl)-5-ethoxy-2-fluorobenzoic acid], the IC50 is 8 to 1000 µM.

As for `CCOc1cc(C(=O)O)c(F)cc1-c1cn(C2CCN(C(=O)CO)CC2)c2ncc(-c3c(C)noc3C)cc12` [P-0447, 4-(5-(3,5-dimethylisoxazol-4-yl)-1-(1-(2-hydroxyacetyl)piperidin-4-yl)-1H-pyrrolo[2,3-b]pyridin-3-yl)-5-ethoxy-2-fluorobenzoic acid], the IC50 is 8 to 1000 µM.

As to `CCc1onc(C)c1-c1cnc2c(c1)c(-c1c(Cl)cc(C(=O)O)cc1OC(F)(F)F)cn2-c1ccc(C2CC2)nc1` [P-0448, 3-chloro-4-(1-(6-cyclopropylpyridin-3-yl)-5-(5-ethyl-3-methylisoxazol-4-yl)-1H-pyrrolo[2,3-b]pyridin-3-yl)-5-(trifluoromethoxy)benzoic acid], the IC50 was 1 to 8 µM.

Regarding `Cc1nnn(C)c1-c1cnc2c(c1)c(-c1cccc(C(=O)O)c1)cn2[C@@H](C)c1ccccn1` [P-0449, (S)-3-(5-(1,4-dimethyl-1H-1,2,3-triazol-5-yl)-1-(1-(pyridin-2-yl)ethyl)-1H-pyrrolo[2,3-b]pyridin-3-yl)benzoic acid], the IC50 fell in the range of 1 to 8 µM.
